Patent US8822468B2 (Novartis AG, priority 2008, dated 2014)
pIC50: −log10 of the molar value.

target: T1, cMET receptor tyrosine kinase (GST-cMET (969-1390)) (Homo sapiens, UniProt P08581); test: EPK cMET profiling assay (LanthaScreen TR-FRET antibody based kinase phosphorylation assay); type: biochemical; conditions: purified recombinant GST-cMET (969-1390), 2 μM ATP, 50 nM Fluorescein-PolyEAY, 60 minutes at room temperature; read-out: c-Met IC50
T1 construct: made in house
Method: A number of compounds of the present invention were assayed in an antibody based kinase phosphorylation assay as follows.
EPK cMET Profiling Assay:
The EPK kinase assay for cMET receptor tyrosine kinase was developed, using the purified recombinant GST-fusion protein, containing the cytoplasmic domain of the enzyme. GST-cMET (969-1390) was purified by affinity chromatography.
The kinase assay is based on the LanthaScreen™ technology. LanthaScreen™ is the detection of Time-Resolved Fluorescence Resonance Energy Transfer (TR-FRET) using lanthanide chelates to measure interactions between various binding partners. In a TR-FRET kinase assay, a long-lifetime lanthanide donor species is conjugated to an antibody that specifically binds to a phosphorylated product of a kinase reaction that is labeled with a suitable acceptor fluorophore. This antibody-mediated interaction brings the lanthanide donor and the acceptor into proximity such that resonance energy transfer can take place, resulting in a detectible increase in the FRET signal.
The kinase reactions were performed in 384 well microtiter plates in a total reaction volume of 9.05 μL. The assay plates were prepared with 0.05 μL per well of test compound in the appropriate test concentration, as described under “preparation of compound dilutions”. The reactions were started by combining 4.5 μL of ATP solution with 4.5 μL of enzyme-substrate mix (consisting of kinase and substrate). The final concentrations in the kinase reactions were 35 mM Tris/HCl, 1 mM DTT, 0.025% Tween20, 10 μM sodium orthovanadate, 0.25% BSA, 0.6% DMSO, 10 mM MgCl2, 3 mM MnCl2, 2 μM ATP, 50 nM Fluorescein-PolyEAY, and 0.3 nM enzyme.
The reactions were incubated for 60 minutes at room temperature and stopped by adding 4.5 μL of stop buffer (50 mM EDTA, 0.04% NP40, 20 mM Tris/HCl).
Subsequently 4.5 μL of detection mix (50 mM Tris/HCl, 2 mM DTT, 0.05% Tween20, 20 μM sodium orthovanadate, 1% BSA, 1.72 μg/ml Tb-PY20 antibody) were added to the stopped reactions. After 30 minutes incubation at room temperature, the plates were measured in a BMG Pherastar fluorescence reader. The effect of compound on the enzymatic activity was in all assays obtained from the linear progress curves and determined from one reading (end point measurement).
Test compounds were dissolved in DMSO (10 mM) and transferred into 1.4 mL flat bottom or V-shaped Matrix tubes carrying a unique 2D matrix. The stock solutions were stored at −20° C. if not used immediately. For the test procedure the vials were defrosted and identified by a scanner whereby a working sheet was generated that guided the subsequent working steps.
Compound dilutions were made in 96 well plates. This format enabled the assay of maximally 40 individual test compounds at 8 concentrations (single points) including 4 reference compounds. The dilution protocol included the production of “pre-dilution plates”, “master plates” and “assay plates”.
Pre-dilution plates: 96 polypropylene well plates were used as pre-dilution plates. A total of 4 pre-dilution plates were prepared including 10 test compounds each on the plate positions A1-A10, one standard compound at A11 and one DMSO control at A12. All dilution steps were done on a HamiltonSTAR robot.
Master plates: 100 μL of individual compound dilutions including standard compound and controls of the 4 “pre-dilution plates” were transferred into a 384 “master plate” including the following concentrations 1,820, […], 182, 54.6, 18.2, 5.46, 1.82 and 0.546 μM, respectively in 90% of DMSO.
Assay plates: Identical “assay plates” were then prepared by pipetting 50 nL each of compound dilutions of the “master plates” into 384-well “assay plates” by means of a HummingBird 384-channel dispenser. These plates were used directly for the assay which was performed in a total volume of 9.05 μL. This led to a final compound concentration of 10, 3.0, 1.0, 0.3, 0.1, 0.03, 0.01 and 0.003 μM and a final DMSO concentration of 0.5% in the assay.

T1 sequence (P08581 969-1390): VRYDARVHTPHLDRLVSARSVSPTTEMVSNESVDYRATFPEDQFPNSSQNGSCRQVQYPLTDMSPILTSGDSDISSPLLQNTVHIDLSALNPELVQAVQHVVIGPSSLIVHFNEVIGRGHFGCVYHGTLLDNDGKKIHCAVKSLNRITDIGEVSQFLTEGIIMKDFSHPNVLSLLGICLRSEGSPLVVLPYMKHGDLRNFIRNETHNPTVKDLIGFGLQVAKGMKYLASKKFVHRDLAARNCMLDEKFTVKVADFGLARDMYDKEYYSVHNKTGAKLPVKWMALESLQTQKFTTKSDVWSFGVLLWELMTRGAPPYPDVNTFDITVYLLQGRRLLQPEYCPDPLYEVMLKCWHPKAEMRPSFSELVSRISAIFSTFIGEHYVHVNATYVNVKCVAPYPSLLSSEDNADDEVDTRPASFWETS

SMILES	pIC50
Brc1ccc(-c2ccc3ncc(Cc4ccc5ncccc5c4)n3n2)cc1 [Example 19, 6-[6-(4-Bromo-phenyl)-imidazo[1,2-b]pyridazin-3-ylmethyl]-quinoline]	6.67
Nc1cccc(-c2ccc3ncc(Cc4ccc5ncccc5c4)n3n2)c1 [Example 20, 3-(3-Quinolin-6-ylmethyl-imidazo[1,2-b]pyridazin-6-yl)-phenylamine]	7.22
CC(=O)c1ccc(-c2ccc3ncc(Cc4ccc5ncccc5c4)n3n2)cc1 [Example 21, 1-[4-(3-Quinolin-6-ylmethyl-imidazo[1,2-b]pyridazin-6-yl)-phenyl]-ethanone]	7.56
O=[N+]([O-])c1cccc(-c2ccc3ncc(Cc4ccc5ncccc5c4)n3n2)c1 [Example 22, 6-[6-(3-Nitro-phenyl)-imidazo[1,2-b]pyridazin-3-ylmethyl]-quinoline]	8.13
CSc1ccc(-c2ccc3ncc(Cc4ccc5ncccc5c4)n3n2)cc1 [Example 23, 6-[6-(4-Methylsulfanyl-phenyl)-imidazo[1,2-b]pyridazin-3-ylmethyl]-quinoline]	6.90
O=Cc1cccc(-c2ccc3ncc(Cc4ccc5ncccc5c4)n3n2)c1 [Example 24, 3-(3-Quinolin-6-ylmethyl-imidazo[1,2-b]pyridazin-6-yl)-benzaldehyde]	7.63
Fc1ccc(-c2ccc3ncc(Cc4ccc5ncccc5c4)n3n2)cc1 [Example 25, 6-[6-(4-Fluoro-phenyl)-imidazo[1,2-b]pyridazin-3-ylmethyl]-quinoline]	7.32
N#Cc1cccc(-c2ccc3ncc(Cc4ccc5ncccc5c4)n3n2)c1 [Example 26, 3-(3-Quinolin-6-ylmethyl-imidazo[1,2-b]pyridazin-6-yl)-benzonitrile]	7.70
Clc1ccc(-c2ccc3ncc(Cc4ccc5ncccc5c4)n3n2)cc1 [Example 27, 6-[6-(4-Chloro-phenyl)-imidazo[1,2-b]pyridazin-3-ylmethyl]-quinoline]	6.96
CC(=O)Nc1cccc(-c2ccc3ncc(Cc4ccc5ncccc5c4)n3n2)c1 [Example 28, N-[3-(3-Quinolin-6-ylmethyl-imidazo[1,2-b]pyridazin-6-yl)-phenyl]-acetamide]	6.62
c1cncc(-c2ccc3ncc(Cc4ccc5ncccc5c4)n3n2)c1 [Example 29, 6-(6-Pyridin-3-yl-imidazo[1,2-b]pyridazin-3-ylmethyl)-quinoline]	7.40
c1ccc(-c2ccc3ncc(Cc4ccc5ncccc5c4)n3n2)cc1 [Example 30, 6-(6-Phenyl-imidazo[1,2-b]pyridazin-3-ylmethyl)-quinoline]	7.04
c1cnc2ccc(Cc3cnc4ccc(-c5cc6ccccc6o5)nn34)cc2c1 [Example 31, 6-(6-Benzofuran-2-yl-imidazo[1,2-b]pyridazin-3-ylmethyl)-quinoline]	6.64
FC(F)(F)c1ccc(-c2ccc3ncc(Cc4ccc5ncccc5c4)n3n2)cc1 [Example 33, 6-[6-(4-Trifluoromethyl-phenyl)-imidazo[1,2-b]pyridazin-3-ylmethyl]-quinoline]	6.43
c1ccc(-c2cc(-c3ccc4ncc(Cc5ccc6ncccc6c5)n4n3)on2)cc1 [Example 34, 6-[6-(3-Phenyl-isoxazol-5-yl)-imidazo[1,2-b]pyridazin-3-ylmethyl]-quinoline]	6.64
COc1ccc(-c2ccc3ncc(Cc4ccc5ncccc5c4)n3n2)cc1 [Example 35, 6-[6-(4-Methoxy-phenyl)-imidazo[1,2-b]pyridazin-3-ylmethyl]-quinoline]	7.10
CN(C)c1cccc(-c2ccc3ncc(Cc4ccc5ncccc5c4)n3n2)c1 [Example 36, Dimethyl-[3-(3-quinolin-6-ylmethyl-imidazo[1,2-b]pyridazin-6-yl)-phenyl]-amine]	7.19

SMILES	pIC50
Cn1ccc2cc(-c3ccc4ncc(Cc5ccc6ncccc6c5)n4n3)ccc21 [Example 37, 6-[6-(1-Methyl-1H-indol-5-yl)-imidazo[1,2-b]pyridazin-3-ylmethyl]-quinoline]	7.52
c1cnc2ccc(Cc3cnc4ccc(-c5cc6ccccc6s5)nn34)cc2c1 [Example 38, 6-(6-Benzo[b]thiophen-2-yl-imidazo[1,2-b]pyridazin-3-ylmethyl)-quinoline]	7.41
c1cnc2ccc(Cc3cnc4ccc(-c5cnc6ccccc6c5)nn34)cc2c1 [Example 39, 6-(6-Quinolin-3-yl-imidazo[1,2-b]pyridazin-3-ylmethyl)-quinoline]	7.14
COc1ccc2cc(-c3ccc4ncc(Cc5ccc6ncccc6c5)n4n3)ccc2c1 [Example 40, 6-[6-(6-Methoxy-naphthalen-2-yl)-imidazo[1,2-b]pyridazin-3-ylmethyl]-quinoline]	6.89
Clc1ccc(-c2ccc3ncc(Cc4ccc5ncccc5c4)n3n2)s1 [Example 41, 6-[6-(5-Chloro-thiophen-2-yl)-imidazo[1,2-b]pyridazin-3-ylmethyl]-quinoline]	7.25
c1cnc2ccc(Cc3cnc4ccc(-c5cncc6ccccc56)nn34)cc2c1 [Example 42, 6-(6-Isoquinolin-4-yl-imidazo[1,2-b]pyridazin-3-ylmethyl)-quinoline]	6.35
FC(F)(F)Oc1ccc(-c2ccc3ncc(Cc4ccc5ncccc5c4)n3n2)cc1 [Example 43, 6-[6-(4-Trifluoromethoxy-phenyl)-imidazo[1,2-b]pyridazin-3-ylmethyl]-quinoline]	6.46
c1cnc2ccc(Cc3cnc4ccc(-c5ccc6[nH]ccc6c5)nn34)cc2c1 [Example 45, 6-[6-(1H-Indol-5-yl)-imidazo[1,2-b]pyridazin-3-ylmethyl]-quinoline]	7.00
CCCn1cc(-c2ccc3ncc(Cc4ccc5ncccc5c4)n3n2)cn1 [Example 46, 6-[6-(1-Propyl-1H-pyrazol-4-yl)-imidazo[1,2-b]pyridazin-3-ylmethyl]-quinoline]	7.24
Clc1ccc(-c2ccc3ncc(Cc4ccc5ncccc5c4)n3n2)cn1 [Example 47, 6-[6-(6-Chloro-pyridin-3-yl)-imidazo[1,2-b]pyridazin-3-ylmethyl]-quinoline]	7.00
Clc1ccc(-c2ccc(-c3ccc4ncc(Cc5ccc6ncccc6c5)n4n3)cn2)cn1 [Example 48, 6′-Chloro-5-(3-quinolin-6-ylmethyl-imidazo[1,2-b]pyridazin-6-yl)-[2,3′]bipyridinyl]	6.72
Clc1cc(-c2ccc3ncc(Cc4ccc5ncccc5c4)n3n2)ccn1 [Example 49, 6-[6-(2-Chloro-pyridin-4-yl)-imidazo[1,2-b]pyridazin-3-ylmethyl]-quinoline]	7.64
Clc1cc(-c2cc(-c3ccc4ncc(Cc5ccc6ncccc6c5)n4n3)ccn2)ccn1 [Example 50, 2′-Chloro-4-(3-quinolin-6-ylmethyl-imidazo[1,2-b]pyridazin-6-yl)-[2,4′]bipyridinyl]	6.02
c1cnc2ccc(Cc3cnc4ccc(-c5ccc6c(c5)OCO6)nn34)cc2c1 [Example 51, 6-(6-Benzo[1,3]dioxol-5-yl-imidazo[1,2-b]pyridazin-3-ylmethyl)-quinoline]	7.02
c1cnc2ccc(Cc3cnc4ccc(-c5ccc6nonc6c5)nn34)cc2c1 [Example 52, 6-(6-Benzo[1,2,5]oxadiazol-5-yl-imidazo[1,2-b]pyridazin-3-ylmethyl)-quinoline]	6.62
Clc1cccc(-c2ccc3ncc(Cc4ccc5ncccc5c4)n3n2)c1 [Example 53, 6-[6-(3-Chloro-phenyl)-imidazo[1,2-b]pyridazin-3-ylmethyl]-quinoline]	6.96
